According to ChEMBL document CHEMBL3045223, “Synthesis, nematicidal and antimicrobial properties of Bis-[4-methoxy-3-[3-(4-fluorophenyl)-6-(4-methylphenyl)-2(aryl)-tetrahydro-2H-pyrazolo[3,4-d]thiazol-5-yl]phenyl]methanes” (2009):
In brackets after ≈: the same amount, converted by molar mass. Activity calls are given as the source filed them. The calls are words filed in the database; no cut-off is given here.

Columns and labels:
Assay type in all cases: functional
[1] = system: Trichophyton mentagrophytes; assay: Antifungal activity against Trichophyton mentagrophytes IFO 40996 assessed as growth inhibition at 37 degC for 48 hr; conditions: IFO 40996, 48 h
Trichophyton rubrum [2] = assay: Antifungal activity against Trichophyton rubrum IFO 9185 assessed as growth inhibition at 37 degC for 48 hr; conditions: IFO 9185, 48 h
Aspergillus fumigatus [3] = assay: Antifungal activity against Aspergillus fumigatus HIC 6094 assessed as growth inhibition at 37 degC for 48 hr
Candida albicans [4] = assay: Antifungal activity against Candida albicans ATCC 10231 assessed as growth inhibition at 37 degC for 48 hr; conditions: ATCC 10231, 48 h
[5] = system: Trichophyton mentagrophytes; assay: Antifungal activity against Trichophyton mentagrophytes IFO 40996 assessed as growth inhibition at 300 ug/disc at 37 degC for 48 hr; conditions: for zone of inhibition at 300 µg/disc: IFO 40996, 48 h, read-out: IZ
Trichophyton rubrum [6] = assay: Antifungal activity against Trichophyton rubrum IFO 9185 assessed as growth inhibition at 300 ug/disk at 37 degC for 48 hr; conditions: for zone of inhibition at 300 µg/disc: IFO 9185, 48 h, read-out: IZ
Aspergillus fumigatus [7] = assay: Antifungal activity against Aspergillus fumigatus HIC 6094 assessed as growth inhibition at 300 ug/disc at 37 degC for 48 hr; conditions: for zone of inhibition at 300 µg/disc: HIC 6094, 48 h, read-out: IZ
Candida albicans [8] = assay: Antifungal activity against Candida albicans ATCC 10231 assessed as growth inhibition at 300 ug/disk at 37 degC for 48 hr; conditions: ATCC 10231, 48 h, read-out: IZ
[9] = system: Chromobacterium violaceum; assay: Antibacterial activity against Chromobacterium violaceum MTCC 2656 assessed as growth arrest at 37 degC for 24 hr; conditions: MTCC 2656, 24 h
Klebsiella aerogenes [10] = assay: Antibacterial activity against Enterobacter aerogenes MTCC 39 assessed as growth arrest at 37 degC for 24 hr; conditions: MTCC 39, 24 h
Pseudomonas aeruginosa [11] = assay: Antibacterial activity against Pseudomonas aeruginosa MTCC 741 assessed as growth arrest at 37 degC for 24 hr; conditions: MTCC 741, 24 h
Staphylococcus aureus [12] = assay: Antibacterial activity against Staphylococcus aureus MTCC 96 assessed as growth arrest at 37 degC for 24 hr; conditions: MTCC 96, 24 h
[13] = system: Lysinibacillus sphaericus; assay: Antibacterial activity against Lysinibacillus sphaericus MTCC 11 assessed as growth arrest at 37 degC for 24 hr; conditions: MTCC 11, 24 h
Bacillus subtilis [14] = assay: Antibacterial activity against Bacillus subtilis MTCC 441 assessed as growth arrest at 37 degC for 24 hr; conditions: MTCC 441, 24 h
[15] = system: Chromobacterium violaceum; assay: Antibacterial activity against Chromobacterium violaceum MTCC 2656 assessed as inhibition zones at 300 ug/disk at 37 degC for 24 hr; conditions: MTCC 2656, 24 h, read-out: IZ
Klebsiella aerogenes [16] = assay: Antibacterial activity against Enterobacter aerogenes MTCC 39 assessed as inhibition zones at 300 ug/disk at 37 degC for 24 hr; conditions: MTCC 39, 24 h, read-out: IZ
Pseudomonas aeruginosa [17] = assay: Antibacterial activity against Pseudomonas aeruginosa MTCC 741 assessed as inhibition zones at 300 ug/disk at 37 degC for 24 hr; conditions: MTCC 741, 24 h, read-out: IZ
Staphylococcus aureus [18] = assay: Antibacterial activity against Staphylococcus aureus MTCC 96 assessed as inhibition zones at 300 ug/disc at 37 degC for 24 hr; conditions: MTCC 96, 24 h, read-out: IZ
[19] = system: Lysinibacillus sphaericus; assay: Antibacterial activity against Lysinibacillus sphaericus MTCC 11 assessed as inhibition zones at 300 ug/disk at 37 degC for 24 hr; conditions: MTCC 11, 24 h, read-out: IZ
Bacillus subtilis [20] = assay: Antibacterial activity against Bacillus subtilis MTCC 441 assessed as inhibition zones at 300 ug/disk at 37 degC for 24 hr; conditions: MTCC 441, 24 h, read-out: IZ
Caenorhabditis elegans = assay: Nematicidal activity against Caenorhabditis elegans assessed as immobility; conditions: read-out: LD50 (the source's name)
[21] = system: Ditylenchus myceliophagus; assay: Nematicidal activity against Ditylenchus myceliophagus assessed as immobility; conditions: read-out: LD50 (the source's name)

SMILES | MBC [1] [µg/mL] | MIC [1] [µg/mL] | MBC (Trichophyton rubrum [2]) [µg/mL] | MIC (Trichophyton rubrum [2]) [µg/mL] | MBC (Candida albicans [4]) [µg/mL] | MIC (Candida albicans [4]) [µg/mL] | zone of inhibition at 300 µg/disc (Candida albicans [8]) [mm] | MBC [9] [µg/mL] | MIC [9] [µg/mL] | MBC (Klebsiella aerogenes [10]) [µg/mL] | MIC (Klebsiella aerogenes [10]) [µg/mL] | MBC (Pseudomonas aeruginosa [11]) [µg/mL] | MIC (Pseudomonas aeruginosa [11]) [µg/mL] | MBC (Staphylococcus aureus [12]) [µg/mL] | MIC (Staphylococcus aureus [12]) [µg/mL] | MBC [13] [µg/mL] | MIC [13] [µg/mL] | MBC (Bacillus subtilis [14]) [µg/mL] | MIC (Bacillus subtilis [14]) [µg/mL] | zone of inhibition at 300 µg/disc [15] [mm] | further results
COc1ccc(N2N=C3C(SC(c4cc(Cc5ccc(OC)c(C6SC7C(=NN(c8ccc(OC)cc8)C7c7ccc(F)cc7)N6c6ccc(Cl)cc6)c5)ccc4OC)N3c3ccc(Cl)cc3)C2c2ccc(F)cc2)cc1 (stereo unspecified) | 50 (≈ 45.3 µM) | 25 (≈ 22.6 µM) | 50 (≈ 45.3 µM) | 25 (≈ 22.6 µM) | 50 (≈ 45.3 µM) | 25 (≈ 22.6 µM) | 14 | 50 (≈ 45.3 µM) | 6.25 (≈ 5.66 µM) | 25 (≈ 22.6 µM) | 12.5 (≈ 11.3 µM) | 50 (≈ 45.3 µM) | 12.5 (≈ 11.3 µM) | 25 (≈ 22.6 µM) | 12.5 (≈ 11.3 µM) | 50 (≈ 45.3 µM) | 12.5 (≈ 11.3 µM) | 12.5 (≈ 11.3 µM) | 12.5 (≈ 11.3 µM) | 23 | MBC (Aspergillus fumigatus [3]): inactive; MIC (Aspergillus fumigatus [3]): inactive; inhibition zone (IZ) [5]: inactive; inhibition zone (IZ) (Trichophyton rubrum [6]): inactive; inhibition zone (IZ) (Aspergillus fumigatus [7]): inactive; zone of inhibition at 300 µg/disc (Klebsiella aerogenes [16]): 21 mm; zone of inhibition at 300 µg/disc (Pseudomonas aeruginosa [17]): 20 mm; zone of inhibition at 300 µg/disc (Staphylococcus aureus [18]): 28 mm; zone of inhibition at 300 µg/disc [19]: 16 mm; zone of inhibition at 300 µg/disc (Bacillus subtilis [20]): 17 mm; LC50 (Caenorhabditis elegans): 820 µg/mL (≈ 743 µM); LC50 [21]: 900 µg/mL (≈ 815 µM)
COc1ccc(Cc2ccc(OC)c(C3SC4C(=NN(Cc5ccccc5)C4c4ccc(F)cc4)N3c3ccc(C)cc3)c2)cc1C1SC2C(=NN(Cc3ccccc3)C2c2ccc(F)cc2)N1c1ccc(C)cc1 (stereo unspecified) | 25 (≈ 24.2 µM) | 25 (≈ 24.2 µM) | 25 (≈ 24.2 µM) | 12.5 (≈ 12.1 µM) | 6.25 (≈ 6.06 µM) | 3.12 (≈ 3.03 µM) | 22 | 12.5 (≈ 12.1 µM) | 12.5 (≈ 12.1 µM) | 50 (≈ 48.5 µM) | 12.5 (≈ 12.1 µM) | 25 (≈ 24.2 µM) | 12.5 (≈ 12.1 µM) | 6.25 (≈ 6.06 µM) | 6.25 (≈ 6.06 µM) | 12.5 (≈ 12.1 µM) | 6.25 (≈ 6.06 µM) | 12.5 (≈ 12.1 µM) | 6.25 (≈ 6.06 µM) | 17 | MBC (Aspergillus fumigatus [3]; HIC 6094, 48 h): 25 µg/mL (≈ 24.2 µM); MIC (Aspergillus fumigatus [3]; HIC 6094, 48 h): 25 µg/mL (≈ 24.2 µM); zone of inhibition at 300 µg/disc [5]: 16 mm; zone of inhibition at 300 µg/disc (Trichophyton rubrum [6]): 15 mm; zone of inhibition at 300 µg/disc (Aspergillus fumigatus [7]): 16 mm; zone of inhibition at 300 µg/disc (Klebsiella aerogenes [16]): 22 mm; zone of inhibition at 300 µg/disc (Pseudomonas aeruginosa [17]): 14 mm; zone of inhibition at 300 µg/disc (Staphylococcus aureus [18]): 24 mm; zone of inhibition at 300 µg/disc [19]: 14 mm; zone of inhibition at 300 µg/disc (Bacillus subtilis [20]): 20 mm; LC50 (Caenorhabditis elegans): 210 µg/mL (≈ 204 µM); LC50 [21]: 190 µg/mL (≈ 184 µM)
COc1ccc(N2N=C3C(SC(c4cc(Cc5ccc(OC)c(C6SC7C(=NN(c8ccc(OC)cc8)C7c7ccc(F)cc7)N6c6ccc(C)cc6)c5)ccc4OC)N3c3ccc(C)cc3)C2c2ccc(F)cc2)cc1 (stereo unspecified) | 25 (≈ 23.5 µM) | 12.5 (≈ 11.8 µM) | 12.5 (≈ 11.8 µM) | 12.5 (≈ 11.8 µM) | 25 (≈ 23.5 µM) | 25 (≈ 23.5 µM) | 9 | 12.5 (≈ 11.8 µM) | 6.25 (≈ 5.88 µM) | 25 (≈ 23.5 µM) | 25 (≈ 23.5 µM) | 25 (≈ 23.5 µM) | 12.5 (≈ 11.8 µM) | 25 (≈ 23.5 µM) | 25 (≈ 23.5 µM) | 50 (≈ 47 µM) | 50 (≈ 47 µM) | 25 (≈ 23.5 µM) | 25 (≈ 23.5 µM) | 17 | MBC (Aspergillus fumigatus [3]; HIC 6094, 48 h): 50 µg/mL (≈ 47 µM); MIC (Aspergillus fumigatus [3]; HIC 6094, 48 h): 25 µg/mL (≈ 23.5 µM); zone of inhibition at 300 µg/disc [5]: 12 mm; zone of inhibition at 300 µg/disc (Trichophyton rubrum [6]): 13 mm; zone of inhibition at 300 µg/disc (Aspergillus fumigatus [7]): 15 mm; zone of inhibition at 300 µg/disc (Klebsiella aerogenes [16]): 20 mm; zone of inhibition at 300 µg/disc (Pseudomonas aeruginosa [17]): 18 mm; zone of inhibition at 300 µg/disc (Staphylococcus aureus [18]): 26 mm; zone of inhibition at 300 µg/disc [19]: 15 mm; zone of inhibition at 300 µg/disc (Bacillus subtilis [20]): 15 mm; LC50 (Caenorhabditis elegans): 870 µg/mL (≈ 818 µM); LC50 [21]: 950 µg/mL (≈ 893 µM)
